Publication PMC9784828, “Antimicrobial Activity of Peptide-Coupled Antisense Peptide Nucleic Acids in Streptococcus pneumoniae” (Microbiology Spectrum, 2022)

How the values were obtained:
[1] = system: G. mellonella larvae infected with S. pneumoniae TIGR4; experiment: G. mellonella infection model, larval survival; assay type: in vivo, Galleria mellonella; settings: 7 days; for Survival of infected larvae: 30 min postinfection, mock 19%, n = 40
Method: Antimicrobial efficiency of CPP-antisense PNA conjugates was evaluated in vivo employing a G. mellonella infection and treatment model ([22], [28]). Larvae were infected with S. pneumoniae strain TIGR4 and subsequently treated with 10 nmol CPP-anti-gyrA PNAs. Treatment with levofloxacin served as a positive control. Larval survival was observed over 7 days.
Larvae of the greater wax moth (G. mellonella) were obtained from Bugs-International GmbH (Irsingen/Unterfeld, Germany). For infection experiments, S. pneumoniae TIGR4 was grown for 7 h in BHI, washed twice in a 0.9% NaCl solution, and suspended in 0.9% NaCl to a final concentration of approximately 1 × 10^8 CFU/mL. Larvae weighing 150 to 200 mg were infected with 1 × 10^6 to 3 × 10^6 CFU/larva. Bacteria were injected into the hemocoel of the larvae between the last two pairs of prolegs using a microapplicator (World Precision Instruments, LLC, Sarasota, FL) and a fine-dosage syringe (Omnican-F, 0.01 to 1 mL, 0.30 × 12 mm; B. Braun AG, Melsungen, Germany). As mock control, 0.9% NaCl (PNA experiment) or 0.9% NaCl/3% DMSO (levofloxacin experiment) was injected. For CPP-PNA treatment, larvae were injected 30 min postinfection with 10 nmol CPP-PNA/larva. For levofloxacin treatment, larvae were injected 30 min postinfection with 1 or 10 μg levofloxacin/larva. Larvae were incubated for 7 days, and survival was monitored daily ([22]).

[2] = system: G. mellonella larvae infected with S. pneumoniae TIGR4; experiment: G. mellonella infection model, bacterial load; assay type: in vivo, Galleria mellonella; settings: 24 h postinfection
Method: To establish the antibacterial effect of PNAs in the invertebrate infection model, we assessed the bacterial loads in infected larvae (Fig. 6). Larvae were infected and subsequently treated with NaCl (mock), 10 nmol CPP-PNA, or levofloxacin (positive control), respectively. From each group, four larvae were homogenized at 24 h postinfection. CFU/larva were determined following serial dilutions of the suspension and plating on selective medium. Treatment with (RXR)4XB-anti-gyrA caused a log CFU reduction of 1 compared to that in the mock-treated larvae. The addition of 1 or 10 μg levofloxacin led to a log CFU reduction of 2 or 6, respectively.
For determination of bacterial load, larvae were infected and subsequently treated with NaCl (mock), CPP-PNAs, or levofloxacin (positive control). At 24 h after infection, larvae were homogenized. Following serial dilution, the suspension was plated on selective medium (BD Columbia CNA Agar with 5% sheep blood; Becton Dickinson GmbH, Heidelberg, Germany). Agar plates were incubated overnight at 37°C, 5% CO2. CFU/larva was determined by visual inspection. Colony identity was verified on a random basis by colony PCR using ply-specific primers.

[3] = system: Detroit 562 cells infected with S. pneumoniae TIGR4; experiment: Cell-based infection model, bacterial CFU; parameters: species or system Streptococcus pneumoniae; settings: MOI 5, 3 h at 37°C, n = 3
Method: Detroit 562 human pharyngeal epithelial cells were infected with S. pneumoniae TIGR4 at a multiplicity of infection (MOI) of 5. Cells were treated with 20 μM (RXR)4XB-anti-gyrA PNA or scrambled control PNA, respectively. As a positive control, 1 μg levofloxacin, corresponding to 3× MIC, was added. Following incubation for 3 h at 37°C, bacterial CFU counts were determined for CPP-antisense PNA-treated samples and compared to those in nontreated samples and in samples containing scrambled control PNAs (Fig. 4A). Treatment with (RXR)4XB-anti-gyrA caused a log CFU reduction of 1. Addition of levofloxacin led to a log CFU reduction of 2.
The human pharynx carcinoma epithelial cell line Detroit 562 (ATCC CCL138) was cultivated in Dulbecco’s modified Eagle medium (DMEM)/F12 (1:1) (Thermo Fisher Scientific, Schwerte, Germany) supplemented with 10% fetal bovine serum at 37°C and 5% CO2. Confluent Detroit 562 cells were infected with S. pneumoniae TIGR4 at an MOI of 5. Cultures were treated with 20 μM CPP-PNAs or 1 μg levofloxacin, respectively, and incubated for 3 h at 37°C, 5% CO2. After incubation, the supernatant was collected. Adherent cells were detached with Accutase solution (Merck KGaA, Darmstadt, Germany), collected by centrifugation for 10 min at 4,000 × g, and combined with the supernatant. Cells were pelleted by centrifugation, washed twice with PBS, and suspended in PBS. CFU/well was determined following serial dilution and plating on Todd Hewitt Broth, supplemented with Yeast, (THY) agar plates.

S. pneumoniae TIGR4 [4] = experiment: Bacterial killing assay (CFU/mL reduction after 6 h); assay type: cell-based, Streptococcus pneumoniae; settings: TIGR4
Method: The impact of different CPPs on the efficacy of antisense PNAs targeting gyrA and rpoB in S. pneumoniae was tested using an in vitro killing assay ([25]). S. pneumoniae strains were incubated for 6 h with CPP-antisense PNA conjugates. We determined the reduction of bacterial CFU/mL caused by different CPP-coupled antisense PNA constructs compared to an untreated control. Three different CPPs were tested: HIV-1 TAT (TAT), oligolysin (K8), and (RXR)4XB (Table 1). Concentration-dependent bactericidal activity was investigated by treatment of S. pneumoniae TIGR4 in a CPP-antisense PNA conjugate concentration range of 2.5 to 20 μM (Fig. 1).
After culturing S. pneumoniae strains in BHI, D39 and 19F were diluted to approximately 10^5 CFU/mL in phosphate-buffered saline (PBS):BHI (93%:7%), while TIGR4 was diluted to approximately 10^5 CFU/mL in PBS:BHI (96%:4%). Next, 450-μL volumes of the respective bacterial suspensions, containing approximately 0.5× 10^5 CFU, were transferred to 2-mL reaction tubes. A 50-μL volume of PNA solution was added to a final PNA concentration of 1 to 20 μM or as indicated. Fifty μL H2O served as a mock control. The reaction tubes were incubated for 6 h at 37°C and 7 rpm (Rotor SB3; Stuart, Staffordshire, United Kingdom). The concentration of CPP-PNA that reduced CFU/mL by 50% after 6 h of incubation compared to an untreated control (IC50) was calculated by nonlinear regression analysis using GraphPad Prism software (GraphPad Software, San Diego, CA).

S. pneumoniae TIGR4 [5] = experiment: In vitro time-killing assay (killing kinetics); assay type: cell-based, Streptococcus pneumoniae; settings: 10 μM, samples every 2 h up to 12 h, n = 3
Method: The antimicrobial activity kinetics of TAT- and (RXR)4XB-conjugated anti-gyrA PNA constructs in S. pneumoniae TIGR4 were studied using an in vitro time-killing assay. Bacteria were treated with 10 μM CPP-antisense PNAs or scrambled control PNAs (Fig. 2). Samples were collected every 2 h following antisense treatment. CFU/mL was determined by plating of serial dilutions and plotted over time. […] In contrast, (RXR)4XB-conjugated anti-gyrA PNA treatment led to a continuous reduction in S. pneumoniae CFU until complete eradication after 12 h.
For monitoring of killing kinetics, samples were collected 2 to 12 h post-treatment. Viable cell counts were determined by plating appropriate dilutions on BHI agar plates. CFU were determined by visual inspection following overnight incubation at 37°C under a 5% CO2 atmosphere. At time point 0, the viable cell count corresponded to 1 × 10^5 to 3 × 10^5 CFU/mL.

Compound: C[C@H]1COc2c(N3CCN(C)CC3)c(F)cc3c(=O)c(C(=O)O)cn1c23 [levofloxacin, reference compound]
- Survival of infected larvae ([1]; 1 μg levofloxacin/larva (approx. 2.5× MIC)): 40%
- Increase of survival rate ([1]; 1 μg levofloxacin/larva): 21%
- Survival of infected larvae ([1]; 10 μg levofloxacin/larva (approx. 25× MIC)): 74%
- log CFU reduction of bacterial load compared to mock-treated larvae ([2]; 1 μg levofloxacin): 2
- log CFU reduction of bacterial load compared to mock-treated larvae ([2]; 10 μg levofloxacin): 6
- log CFU reduction in infected Detroit 562 cells ([3]; 1 μg levofloxacin, corresponding to 3× MIC): 2

Compound: KKKKKKKK-eg-tgcattaata [K8-anti-gyrA PNA, Oligolysin (K8) coupled to antisense PNA against gyrA]
- Reduction of bacterial CFU/mL compared to untreated control (in words) (S. pneumoniae TIGR4 [4]; 6 h, concentration range 2.5 to 20 μM, n = 5): no reduction of CFU/mL

Compound: RXRRXRRXRRXRXB-eg-aatgattact [(RXR)4XB-anti-gyrA scPNA, (RXR)4XB-coupled scrambled control PNA for anti-gyrA]
- Bacterial counts over time (in words) (S. pneumoniae TIGR4 [5]): did not cause reduced bacterial counts
- log CFU reduction of bacterial load compared to mock-treated larvae ([2]; 10 nmol CPP-PNA/larva, n = 4 larvae per group, three experiments): no significant changes in the bacterial CFU
- log CFU reduction in infected Detroit 562 cells ([3]; 20 μM CPP-PNA): No significant changes in bacterial CFU

Compound: TAT: unconjugated cell-penetrating peptide HIV-1 TAT (48–57) (GRKKRRQRRR; UniProt P04608 48-57, looked up, fragment) [reference compound]
- Antibacterial effects of unconjugated CPP (in words) (S. pneumoniae TIGR4 [4]; Fig. S3): higher than those of the conjugated peptides
